In assay [1] the test system is Drug Resistant Pseudomonas aeruginosa. As to conditions: other target organisms tested (Drug Resistant Pseudomonas aeruginosa); agar dilution. The protocol: (§1) A solution of Bogorol A was prepared by dissolving 3 mg of e compound in 300 μL of dimethylsulfoxide (DMSO). Serial two-fold dilutions were prepared in DMSO, and 50 μL of each dilution was mixed with 5 mL of melted Mueller-Hinton agar to achieve a final Bogorol A concentration range of 200 to 0.48 μg/ml. After the agar solidified, standardized suspensions of the target organisms were inoculated onto the surface of the agar using a multipoint inoculator. The standardized suspensions were prepared in tryptic soy broth adjusted to a 1.0 McFarland turbidity standard. The plates were incubated over night at 37° C. Activity of Bogorol A was indicated by a lack of growth of any target organism at its point of inoculation.
Background: In agar dilution, organisms are placed on agar that contains the substance at set levels.

Assay [2] has as its system Stenotrophomonas maltophilia. As to conditions: agar dilution. As to the method:
as §1

The subject of another assay is Berkholderia cepacia. As to conditions: other target organisms tested (Berkholderia cepacia); agar dilution. As to the method: as §1
The next assay has as its system Candida aibicans. The conditions noted are these: other target organisms tested (Candida aibicans); agar dilution. The protocol: as §1
Another assay concerns Escherichia coli. As to conditions: agar dilution. As to the method:
as §1

Assay [3] relates to vancomycin-resistant Enterococcus faecalis. The conditions noted are these: agar dilution. The protocol:
as §1

Assay [4] has as its system methicillin-resistant Staphylococcus aureus. In words: agar dilution antimicrobial assay (MIC). It counts as cell-based. As to the method:
as §1

Starred links: 1 amine or outer side, 2 acyl side, 3 side chain; linkers in the order of their positions; H or OH if unused. Non-standard residues stand in square brackets, D forms with d. Residues, ends and D or L forms follow the SMILES beside them. *: point of attachment. Pentanoyl(2S-OH,3S-Me) = CC[C@H](C)[C@H](O)C(=O)*; X1 = C/C=C(/N[*:1])C(=O)[*:2]; dOrn = NCCC[C@@H](N)C(=O)O; Valol = CC(C)[C@@H](CO)N*

Consider `C/C=C(/NC(=O)[C@@H](O)[C@@H](C)CC)C(=O)N[C@@H](CC(C)C)C(=O)N[C@H](CCCN)C(=O)N[C@H](C(=O)N[C@H](C(=O)N[C@H](C(=O)N[C@H](CCCCN)C(=O)N[C@H](C(=O)N[C@@H](CC(C)C)C(=O)N[C@@H](CCCCN)C(=O)N[C@H](Cc1ccc(O)cc1)C(=O)N[C@H](CC(C)C)C(=O)N[C@H](CO)C(C)C)C(C)C)C(C)C)C(C)C)[C@@H](C)CC` [Bogorol A] ({Pentanoyl(2S-OH,3S-Me)}-[X1]L[dOrn]IVV[dK]VLK[dY][dL]-Valol), for which the “antimicrobial activity (in words)” value was “essentially inactive” in assay [1]; “moderately active” in assay [2]; “essentially inactive” in the assay on Berkholderia cepacia; “essentially inactive” in the assay with Candida aibicans; “moderately active” in the assay with Escherichia coli; “active” in assay [3]. The “antimicrobial activity (in words)” value in assay [4] is “active”.

Source of the values: US6784283B2, “Peptide antibiotics” (The University of British Columbia, priority 2000, dated 2004).
